Test results published in ChEMBL document CHEMBL4680144, “N-thiadiazole-4-hydroxy-2-quinolone-3-carboxamides bearing heteroaromatic rings as novel antibacterial agents: Design, synthesis, biological evaluation and target identification” (Eur J Med Chem, 2020).
In brackets after ≈: the same amount, converted by molar mass.

Experiments:
[1] = tested on: Staphylococcus aureus; experiment: Antibacterial activity against wild type methicillin-sensitive Staphylococcus aureus ATCC 29213 assessed as inhibition of bacterial growth incubated for 18 to 24 hrs by broth microdilution method; format: functional; details: time 18-24 hrs
[2] = tested on: Staphylococcus aureus; experiment: In vivo antibacterial activity against methicillin resistant Staphylococcus aureus clinical isolate 15-1 infected in kunming mouse assessed as animal survival rate at 3 mg/kg, po administered 6 hrs prior to bacterial infection and at 0 and 6 hrs post infection and measured for 7 days (reference value: 12.5 %); format: functional; details: 15-1, po, 168 h, time 7 day
[3] = Metabolic stability in mouse liver microsomes assessed as half life preincubated for 5 mins followed by NADPH addition and measured up to 60 mins by LC-MS/MS analysis; format: ADME, Microsome; details: time 65 min
[4] = tested on: Staphylococcus aureus; experiment: Potency index, ratio of vancomycin MIC to test compound MIC for antibacterial activity against methicillin-resistant Staphylococcus aureus clinical isolate 15-2 assessed as inhibition of bacterial growth incubated for 18 to 24 hrs by broth microdilution method; format: functional; details: time 18-24 hrs
[5] = tested on: Staphylococcus aureus; experiment: Potency index, ratio of vancomycin MIC to test compound MIC for antibacterial activity against methicillin-resistant Staphylococcus aureus clinical isolate 15-8 assessed as inhibition of bacterial growth incubated for 18 to 24 hrs by broth microdilution method; format: functional; details: time 18-24 hrs
[6] = tested on: HUVEC; experiment: Cytotoxicity against HUVEC assessed as reduction in cell viability after 72 hrs by sulforhodamine B assay; format: cell-based; details: Homo sapiens
[7] = Metabolic stability in mouse liver microsomes assessed as intrinsic clearance preincubated for 5 mins followed by NADPH addition and measured up to 60 mins by LC-MS/MS analysis; format: ADME, Microsome; details: time 65 min, read-out: CLH
[8] = tested on: Enterococcus faecalis; experiment: Antibacterial activity against vancomycin-resistant Enterococcus faecalis ATCC 51299 assessed as inhibition of bacterial growth incubated for 18 to 24 hrs by broth microdilution method; format: functional; details: time 18-24 hrs
[9] = Metabolic stability in mouse plasma assessed as half life measured upto 120 mins by LC-MS/MS analysis; format: ADME, cell-free
[10] = MRTlast in Kunming mouse at 10 mg/kg, po measured upto 72 hrs by HPLC analysis; format: ADME, organism-based; details: in vivo
[11] = tested on: Enterococcus faecalis; experiment: Potency index, ratio of vancomycin MIC to test compound MIC for antibacterial activity against Enterococcus faecalis clinical isolate 15-1 assessed as inhibition of bacterial growth incubated for 18 to 24 hrs by broth microdilution method; format: functional; details: time 18-24 hrs
[12] = tested on: Staphylococcus aureus; experiment: Antibacterial activity against methicillin-resistant Staphylococcus aureus clinical isolate 15-1 assessed as inhibition of bacterial growth incubated for 18 to 24 hrs by broth microdilution method; format: functional; details: time 18-24 hrs
[13] = tested on: Staphylococcus aureus; experiment: Potency index, ratio of vancomycin MIC to test compound MIC for antibacterial activity against methicillin-resistant Staphylococcus aureus clinical isolate 15-6 assessed as inhibition of bacterial growth incubated for 18 to 24 hrs by broth microdilution method; format: functional; details: time 18-24 hrs
[14] = tested on: Staphylococcus aureus; experiment: Antibacterial activity against methicillin-resistant Staphylococcus aureus clinical isolate 15-6 assessed as inhibition of bacterial growth incubated for 18 to 24 hrs by broth microdilution method; format: functional; details: time 18-24 hrs
[15] = tested on: Enterococcus faecium; experiment: Antibacterial activity against Enterococcus faecium clinical isolate 15-1 assessed as inhibition of bacterial growth incubated for 18 to 24 hrs by broth microdilution method; format: functional; details: time 18-24 hrs
[16] = tested on: Staphylococcus aureus; experiment: In vivo antibacterial activity against methicillin resistant Staphylococcus aureus clinical isolate 15-1 infected in kunming mouse assessed as animal survival rate at 0.33 mg/kg, po administered 6 hrs prior to bacterial infection and at 0 and 6 hrs post infection and measured for 7 days (reference value: 12.5 %); format: functional; details: 15-1, po, 168 h, time 7 day
[17] = tested on: Enterococcus faecium; experiment: Potency index, ratio of vancomycin MIC to test compound MIC for antibacterial activity against Enterococcus faecium clinical isolate 15-1 assessed as inhibition of bacterial growth incubated for 18 to 24 hrs by broth microdilution method; format: functional; details: time 18-24 hrs
[18] = tested on: Staphylococcus aureus; experiment: Antibacterial activity against methicillin-resistant Staphylococcus aureus clinical isolate 15-7 assessed as inhibition of bacterial growth incubated for 18 to 24 hrs by broth microdilution method; format: functional; details: time 18-24 hrs
[19] = AUClast in Kunming mouse at 10 mg/kg, po measured upto 72 hrs by HPLC analysis; format: ADME, organism-based; parameters: route oral, dose 10 mg/kg, time <=72; details: in vivo
[20] = tested on: Staphylococcus epidermidis; experiment: Antibacterial activity against methicillin-sensitive Staphylococcus epidermidis clinical isolate 15-3 assessed as inhibition of bacterial growth incubated for 18 to 24 hrs by broth microdilution method; format: functional; details: time 18-24 hrs
[21] = tested on: Staphylococcus epidermidis; experiment: Antibacterial activity against methicillin-resistant Staphylococcus epidermidis clinical isolate 15-1 assessed as inhibition of bacterial growth incubated for 18 to 24 hrs by broth microdilution method; format: functional; details: time 18-24 hrs
[22] = tested on: Staphylococcus aureus; experiment: Inhibition of Staphylococcus aureus Gyrase B assessed as reduction in supercoiled pBR322 DNA production incubated for 30 mins by ethidium bromide staining based agarose gel electrophoresis method; details: dose 0.1-100 µM
[23] = tested on: Staphylococcus aureus; experiment: Potency index, ratio of vancomycin MIC to test compound MIC for antibacterial activity against methicillin resistant and vancomycin-intermediate sensitive Staphylococcus aureus ATCC 700699 assessed as inhibition of bacterial growth incubated for 18 to 24 hrs by broth microdilution method; format: functional; details: time 18-24 hrs
[24] = tested on: Staphylococcus aureus; experiment: Potency index, ratio of vancomycin MIC to test compound MIC for antibacterial activity against methicillin-resistant Staphylococcus aureus clinical isolate 15-1 assessed as inhibition of bacterial growth incubated for 18 to 24 hrs by broth microdilution method; format: functional; details: time 18-24 hrs
[25] = Toxicity in Kunming mouse assessed as death at 30 mg/kg, po; format: organism-based; details: in vivo
[26] = tested on: Enterococcus faecalis; experiment: Antibacterial activity against Enterococcus faecalis clinical isolate 15-2 assessed as inhibition of bacterial growth incubated for 18 to 24 hrs by broth microdilution method; format: functional; details: time 18-24 hrs
[27] = tested on: Staphylococcus aureus; experiment: In vivo antibacterial activity against methicillin resistant Staphylococcus aureus clinical isolate 15-1 infected in kunming mouse assessed as animal survival rate at 9 mg/kg, po administered 6 hrs prior to bacterial infection and at 0 and 6 hrs post infection and measured for 7 days (reference value: 12.5 %); format: functional; details: 15-1, po, 168 h, time 7 day

**Q.** With CCn1c(=O)c(C(=O)Nc2nnc(-c3nccs3)s2)c(O)c2ccccc21 as the molecule, how does the MIC [1] read?
**A.** Its MIC is 0.1 µg/mL (≈ 0.25 µM).

**Q.** And the survival at 3 mg/kg [2]?
**A.** Its survival at 3 mg/kg is 50%.

**Q.** And the half-life [3]?
**A.** The half-life was 0.593 h.

**Q.** And the Ratio [4]?
**A.** The Ratio was 2.

**Q.** What about the Ratio [5] of the same molecule?
**A.** Its Ratio is 2.

**Q.** What about the IC50 [6] of the same molecule?
**A.** Its IC50 is 38.8 µM.

**Q.** What about the microsomal CLint [7] of the same molecule?
**A.** Its microsomal CLint is 38.9 µL/min/mg.

**Q.** What about the MIC [8] of the same molecule?
**A.** Its MIC is 0.5 µg/mL (≈ 1.25 µM).

**Q.** And the half-life [9]?
**A.** Its half-life is 8.39 h.

**Q.** What about the MRT last at 72 h [10] of the same molecule?
**A.** The MRT last at 72 h was 2.7 h.

**Q.** What about the Ratio [11] of the same molecule?
**A.** Its Ratio is 2.

**Q.** What about the MIC [12] of the same molecule?
**A.** Its MIC is 0.5 µg/mL (≈ 1.25 µM).

**Q.** And the Ratio [13]?
**A.** Its Ratio is 2.

**Q.** And the MIC [14]?
**A.** The MIC was 0.5 µg/mL (≈ 1.25 µM).

**Q.** What about the MIC [15] of the same molecule?
**A.** Its MIC is 1 µg/mL (≈ 2.5 µM).

**Q.** And the survival at 0.33 mg/kg [16]?
**A.** The survival at 0.33 mg/kg was 25%.

**Q.** What about the Ratio [17] of the same molecule?
**A.** Its Ratio is 2.

**Q.** What about the MIC [18] of the same molecule?
**A.** The MIC was 0.5 µg/mL (≈ 1.25 µM).

**Q.** And the AUC(0-t) at 72 h [19]?
**A.** The AUC(0-t) at 72 h was 2540 ng·h/mL.

**Q.** And the MIC [20]?
**A.** Its MIC is 0.5 µg/mL (≈ 1.25 µM).

**Q.** What about the MIC [21] of the same molecule?
**A.** Its MIC is 0.5 µg/mL (≈ 1.25 µM).

**Q.** What about the inhibition [22] of the same molecule?
**A.** Its inhibition is “Dose-dependent effect”.

**Q.** What about the Ratio [23] of the same molecule?
**A.** Its Ratio is 2.

**Q.** What about the Ratio [24] of the same molecule?
**A.** Its Ratio is 2.

**Q.** And the Activity [25]?
**A.** Its Activity is “Non-Toxic”.

**Q.** And the MIC [26]?
**A.** Its MIC is 0.5 µg/mL (≈ 1.25 µM).

**Q.** And the survival at 9 mg/kg [27]?
**A.** The survival at 9 mg/kg was 87.5%.
